Data reported in patent US20080161232A1, “C5a Receptor Antagonist” (JERINI AG, priority 2005, published 2008).
pIC50: −log10 of the molar value. Starred links: 1 amine or outer side, 2 acyl side, 3 side chain; linkers in the order of their positions; H or OH if unused. Positions of bridges follow the written chain, without caps; N, C: chain ends. Non-standard residues stand in square brackets, D forms with d. Residues, ends and D or L forms follow the SMILES beside them. ξ: configuration not given here. *: point of attachment. Phe(4-guanidino) = N=C(N)Nc1ccc(C[C@H](N)C(=O)O)cc1; Phe(Nα-CONH2) = NC(=O)N[C@@H](Cc1ccccc1)C(=O)*; Phe(2-CF3) = N[C@@H](Cc1ccccc1C(F)(F)F)C(=O)O; Phe(3,4-F2) = N[C@@H](Cc1ccc(F)c(F)c1)C(=O)O; ξTrp(5-Me) = Cc1ccc2[nH]cc(CC(N)C(=O)O)c2c1; Phe(3-F) = N[C@@H](Cc1cccc(F)c1)C(=O)O; Phe(3-Me) = Cc1cccc(C[C@H](N)C(=O)O)c1; Phe(4-F) = N[C@@H](Cc1ccc(F)cc1)C(=O)O; X5 = CCN(CC)CCC[C@H](N[*:1])C(=O)[*:2]; 1Nal = N[C@@H](Cc1cccc2ccccc12)C(=O)O; Bta = N[C@@H](Cc1csc2ccccc12)C(=O)O; cisHyp = O=C(O)[C@@H]1C[C@H](O)CN1; Hyp = O=C(O)[C@@H]1C[C@@H](O)CN1; d(hLeu) = CC(C)CC[C@@H](N)C(=O)O; Tic = O=C(O)[C@@H]1Cc2ccccc2CN1; 2Thi = N[C@@H](Cc1cccs1)C(=O)O; Cit = NC(=O)NCCC[C@H](N)C(=O)O; dCha = N[C@H](CC1CCCCC1)C(=O)O; dChg = N[C@@H](C(=O)O)C1CCCCC1; Pip = O=C(O)[C@@H]1CCCCN1; Nle = CCCC[C@H](N)C(=O)O; Orn = NCCC[C@H](N)C(=O)O; Aze = O=C(O)[C@@H]1CCN1; Piv = CC(C)(C)C(=O)*

Molecular target: T1, human C5aR(CD88) (Homo sapiens, UniProt P21730)
T1 construct: expressed in transfected cells; host or cells: rat basophilic leukemia cells (RBL)
T1 sequence (P21730 1-350): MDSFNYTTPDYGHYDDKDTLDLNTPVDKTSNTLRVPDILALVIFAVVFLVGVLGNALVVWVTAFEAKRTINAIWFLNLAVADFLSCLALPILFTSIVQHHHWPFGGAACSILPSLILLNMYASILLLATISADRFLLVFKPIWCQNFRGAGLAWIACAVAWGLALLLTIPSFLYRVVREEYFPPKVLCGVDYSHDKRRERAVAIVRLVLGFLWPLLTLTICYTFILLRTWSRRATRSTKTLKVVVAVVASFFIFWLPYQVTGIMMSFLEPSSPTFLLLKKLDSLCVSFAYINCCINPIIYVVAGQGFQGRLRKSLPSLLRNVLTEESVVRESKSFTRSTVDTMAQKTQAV
Test: Determination of the IC50 value in an enzyme release assay (functional assay, antagonistic activity)
Type: cell-based
Conditions: antagonistic activity; IC50 group in enzyme release assay, RBL cells expressing human C5aR(CD88); read-out: activity (group)

Structure (SMILES) | pIC50
CC(=O)N[C@@H](Cc1cccs1)C(=O)N[C@@H](CCCN)C(=O)N1CCC[C@H]1C(=O)N[C@H](CC1CCCCC1)C(=O)N[C@@H](Cc1csc2ccccc12)C(=O)N[C@@H](Cc1ccccc1)C(N)=O [Compound 312, Ac-Thi-Orn-Pro-cha-Bta-Phe-NH2] (Ac-[2Thi][Orn]P[dCha][Bta]F-NH2) | 7.30 to 7.70
CC(=O)N[C@@H](Cc1ccccc1)C(=O)N[C@@H](CCCN)C(=O)N1CCC[C@H]1C(=O)N[C@@H](C(=O)N[C@@H](Cc1c[nH]c2ccccc12)C(=O)N[C@@H](Cc1ccccc1)C(=O)O)C1CCCCC1 [Compound 118, Ac-Phe-Orn-Pro-chg-Trp-Phe-OH] (Ac-F[Orn]P[dChg]WF-OH) | 5.70 to 6.70
CC(=O)N[C@@H](Cc1ccccc1)C(=O)N[C@@H](CCCN)C(=O)N1Cc2ccccc2C[C@H]1C(=O)N[C@H](CC1CCCCC1)C(=O)N[C@@H](Cc1c[nH]c2ccccc12)C(=O)N[C@@H](Cc1ccccc1)C(N)=O [Compound 107, Ac-Phe-Orn-Tic-cha-Trp-Phe-NH2] (Ac-F[Orn][Tic][dCha]WF-NH2) | 6.70 to 7.30
CCN(CC)CCC[C@H](NC(=O)[C@H](Cc1ccccc1)NC(C)=O)C(=O)N1CCC[C@H]1C(=O)N[C@H](CC1CCCCC1)C(=O)N[C@@H](Cc1c[nH]c2ccccc12)C(=O)N[C@@H](Cc1ccccc1)C(N)=O [Compound 143, Ac-Phe-Orn(Et2)-Pro-cha-Trp-Phe-NH2] (Ac-F[X5]P[dCha]WF-NH2) | 6.70 to 7.30
CC(=O)N[C@@H](Cc1ccccc1)C(=O)N[C@H]1CCCNC(=O)[C@H](Cc2ccccc2)NC(=O)[C@H](Cc2csc3ccccc23)NC(=O)[C@@H](CCC(C)C)NC(=O)[C@@H]2CCCCN2C1=O [Compound 185, Ac-Phe-[Orn-Pip-hle-Bta-Phe]] (Ac-F[Orn][Pip][d(hLeu)][Bta]F; lactam 2-C) | 6.70 to 7.30
CC(=O)N[C@@H](Cc1ccccc1)C(=O)N[C@H]1CCCNC(=O)[C@H](Cc2ccc(NC(=N)N)cc2)NC(=O)[C@H](Cc2c[nH]c3ccccc23)NC(=O)[C@@H](CC2CCCCC2)NC(=O)[C@@H]2CCCN2C1=O [compound 9] (Ac-F[Orn]P[dCha]W[Phe(4-guanidino)]; lactam 2-C) | 5.70 to 6.70
CC(=O)N[C@@H](Cc1ccccc1)C(=O)N[C@@H](CCCN)C(=O)N1CCC[C@H]1C(=O)N[C@H](CCC(C)C)C(=O)N[C@@H](Cc1ccccc1C(F)(F)F)C(=O)N[C@@H](Cc1ccccc1)C(N)=O [Compound 296, Ac-Phe-Orn-Pro-hle-Otf-Phe-NH2] (Ac-F[Orn]P[d(hLeu)][Phe(2-CF3)]F-NH2) | 6.70 to 7.30
CC(=O)N[C@@H](Cc1ccccc1)C(=O)N[C@H]1CCCNC(=O)[C@H](C)NC(=O)[C@H](Cc2c[nH]c3ccccc23)NC(=O)[C@@H](CC2CCCCC2)NC(=O)[C@@H]2CCCN2C1=O [Compound 39] (Ac-F[Orn]P[dCha]WA; lactam 2-C) | < 5.70
CC(=O)N[C@@H](Cc1ccccc1)C(=O)N[C@H]1CCCNC(=O)[C@H](Cc2ccccc2)NC(=O)[C@H](Cc2csc3ccccc23)NC(=O)[C@@H](CCC(C)C)NC(=O)[C@@H]2CCCN2C1=O [Compound 197, Ac-Phe-[Orn-Pro-hle-Bta-Phe]] (Ac-F[Orn]P[d(hLeu)][Bta]F; lactam 2-C) | 6.70 to 7.30
CC(=O)N[C@@H](Cc1cccc(F)c1)C(=O)N[C@@H](CCCN)C(=O)N1CCC[C@H]1C(=O)N[C@H](CCC(C)C)C(=O)N[C@@H](Cc1csc2ccccc12)C(=O)N[C@@H](Cc1ccccc1)C(N)=O [Compound 162, Ac-Mff-Orn-Pro-hle-Bta-Phe-NH2] (Ac-[Phe(3-F)][Orn]P[d(hLeu)][Bta]F-NH2) | 6.70 to 7.30
CC(=O)N[C@@H](Cc1ccccc1)C(=O)N[C@@H](CCCNC(N)=O)C(=O)N1CCC[C@H]1C(=O)N[C@H](CC1CCCCC1)C(=O)N[C@@H](Cc1csc2ccccc12)C(=O)N[C@@H](Cc1ccccc1)C(N)=O [Compound 210, Ac-Phe-Cit-Pro-cha-Bta-Phe-NH2] (Ac-F[Cit]P[dCha][Bta]F-NH2) | 6.70 to 7.30
CCCC[C@@H]1NC(=O)[C@H](Cc2c[nH]c3ccccc23)NC(=O)[C@@H](CC2CCCCC2)NC(=O)[C@@H]2C[C@H](O)CN2C(=O)[C@@H](NC(=O)[C@H](Cc2ccccc2)NC(C)=O)CCCNC1=O [Compound 175, Ac-Phe-[Orn-Chy-cha-Trp-Nle]] (Ac-F[Orn][cisHyp][dCha]W[Nle]; lactam 2-C) | 6.70 to 7.30
CC(=O)N[C@@H](Cc1ccccc1)C(=O)N[C@@H](CCCN)C(=O)N1CCC[C@H]1C(=O)N[C@H](CC1CCCCC1)C(=O)N[C@@H](Cc1cccc2ccccc12)C(=O)N[C@@H](Cc1ccccc1)C(N)=O [Compound 248, Ac-Phe-Orn-Pro-cha-1Ni-Phe-NH2] (Ac-F[Orn]P[dCha][1Nal]F-NH2) | 6.70 to 7.30
CC(=O)N[C@@H](Cc1ccccc1)C(=O)N[C@H]1CCCNC(=O)[C@H](Cc2ccccc2)NC(=O)[C@H](Cc2c[nH]c3ccccc23)NC(=O)[C@H](Cc2cccc(C)c2)NC(=O)[C@@H]2C[C@@H](O)CN2C1=O [Compound 183, Ac-Phe-[Orn-Hyp-Mmf-Trp-Phe]] (Ac-F[Orn][Hyp][Phe(3-Me)]WF; lactam 2-C) | 6.70 to 7.30
CC(=O)N[C@@H](Cc1ccccc1)C(=O)N[C@@H](CCCN)C(=O)N1CCC[C@H]1C(=O)N[C@H](CCC(C)C)C(=O)N[C@@H](Cc1ccc(F)c(F)c1)C(=O)N[C@@H](Cc1ccccc1)C(N)=O [Compound 283, Ac-Phe-Orn-Pro-hle-Dff-Phe-NH2] (Ac-F[Orn]P[d(hLeu)][Phe(3,4-F2)]F-NH2) | 6.70 to 7.30
NC(=O)N[C@@H](Cc1ccccc1)C(=O)N[C@H]1CCCNC(=O)[C@H](Cc2ccccc2)NC(=O)[C@H](Cc2c[nH]c3ccccc23)NC(=O)[C@@H](CC2CCCCC2)NC(=O)[C@@H]2C[C@@H](O)CN2C1=O [Compound 323, Fai-Phe-[Orn-Hyp-cha-Trp-Phe]] ({Phe(Nα-CONH2)}-[Orn][Hyp][dCha]WF; lactam 1-C) | 6.70 to 7.30
CCCC[C@@H]1NC(=O)[C@H](Cc2ccc(F)cc2)NC(=O)[C@@H](CC2CCCCC2)NC(=O)[C@@H]2CCCN2C(=O)[C@@H](NC(=O)[C@@H](N)Cc2ccccc2)CCCNC1=O [Compound 374, H-Phe-[Orn-Pro-cha-Pff-Nle]] (H-F[Orn]P[dCha][Phe(4-F)][Nle]; lactam 2-C) | 6.70 to 7.30
CC(=O)N[C@@H](Cc1ccccc1)C(=O)N[C@@H](CCCN)C(=O)N1CCC[C@H]1C(=O)N[C@H](CCC(C)C)C(=O)NC(Cc1c[nH]c2ccc(C)cc12)C(=O)N[C@@H](Cc1ccccc1)C(N)=O (stereo partly drawn) [Compound 285, Ac-Phe-Orn-Pro-hle-Egc-Phe-NH2] (Ac-F[Orn]P[d(hLeu)][ξTrp(5-Me)]F-NH2) | 6.70 to 7.30
CC(C)(C)C(=O)N[C@@H](Cc1ccccc1)C(=O)N[C@@H](CCCN)C(=O)N1CCC[C@H]1C(=O)N[C@H](CC1CCCCC1)C(=O)N[C@@H](Cc1csc2ccccc12)C(=O)N[C@@H](Cc1ccccc1)C(N)=O [Compound 134, ^tBu-CO-Phe-Orn-Pro-cha-Bta-Phe-NH2] (Piv-F[Orn]P[dCha][Bta]F-NH2) | 6.70 to 7.30
CC(=O)N[C@@H](CCCNC(N)=O)C(=O)N[C@@H](Cc1ccccc1)C(=O)N[C@@H](CCCN)C(=O)N1CC[C@H]1C(=O)N[C@H](CC1CCCCC1)C(=O)N[C@@H](Cc1csc2ccccc12)C(=O)N[C@@H](Cc1ccccc1)C(N)=O [Compound 153, Ac-Cit-Phe-Orn-Aze-cha-Bta-Phe-NH2] (Ac-[Cit]F[Orn][Aze][dCha][Bta]F-NH2) | 7.30 to 7.70
